In ChEMBL document CHEMBL1201862, “PubChem BioAssay data set” (2004):
Active and inactive are the calls of the source.

Tests used:
Genome polyprotein = Genome polyprotein (dengue virus type 2, UniProt P29990); assay: flavivirus cap methylation enzyme inhibition – biochemical, confirmation dose response, primary screen (AID 588689); type: functional
[1] = viability of HCT116 lacking mutant beta-catenin – cell-based, human colon tumor, dose response (AID 1045); type: functional;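 also: HCT116 colon tumor cells with beta catenin knocked out; cells exposed to compound for 60 hours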
[2] = viability of PTEN-deleted HCT116 cells – cell-based, HCT116 PTEN knockout, dose response (AID 1047); type: functional;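 also: HCT116 colon tumor cells with PTEN knocked out; cells exposed to compound for 60 hours before readout; potency for loss of cell viability measured by luminescence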
[3] = NIH-3T3 fibroblast cytotoxicity, dose response, cytotoxicity control, cell-based, fluorescence, Alamar Blue, secondary assay (AID 2327); type: functional;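 also: NIH-3T3 mouse fibroblasts cultured with fluconazole at 8 µg/mL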
[4] = fluconazole-exposed Candida albicans growth modulators – fluorescence, retest, confirmation (AID 2467); type: functional, cell-based
Streptokinase A = target: T1, Streptokinase A (Streptococcus pyogenes serotype M1, UniProt P10520); assay: viability-normalized secreted streptokinase activity reduction – plasminogen activation absorbance, OD405, dose response (AID 1914); type: functional, Streptococcus pyogenes M1 GAS;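 also: secreted streptokinase activity via plasminogen activation per viability signal from cell pellet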
T1 sequence (P10520 whole entry): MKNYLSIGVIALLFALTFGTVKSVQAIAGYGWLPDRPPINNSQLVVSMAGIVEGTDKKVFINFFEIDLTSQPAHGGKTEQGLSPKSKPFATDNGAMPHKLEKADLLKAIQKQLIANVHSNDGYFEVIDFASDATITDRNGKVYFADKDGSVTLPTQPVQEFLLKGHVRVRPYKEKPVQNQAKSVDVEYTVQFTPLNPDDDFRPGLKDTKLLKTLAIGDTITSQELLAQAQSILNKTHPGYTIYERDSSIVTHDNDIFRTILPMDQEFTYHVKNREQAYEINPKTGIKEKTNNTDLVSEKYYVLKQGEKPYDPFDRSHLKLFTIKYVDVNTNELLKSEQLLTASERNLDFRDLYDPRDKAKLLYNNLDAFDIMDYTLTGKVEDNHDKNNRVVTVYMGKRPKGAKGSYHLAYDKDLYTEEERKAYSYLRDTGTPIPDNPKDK

[5] = system: Streptococcus sp. 'group A'; assay: Streptococcus pyogenes SK(-)GAS viability under kanamycin – luminescence, BacTiterGlo, confirmation, counter-screen for streptokinase expression inhibitor project, dose response (AID 1900); type: functional, organism-based
Streptococcus = assay: GAS UMAA2166 growth inhibition – luminescence, BacTiterGlo, counter-screen for streptokinase expression inhibitor project, dose response (AID 1915); type: functional, organism-based;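 also: potency for reduction of bacterial viability or growth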
Vero = assay: cells; type: functional, Chlorocebus sabaeus; conditions: Chlorocebus sabaeus, Vero
H4 = assay: Luminescence Cell-Based Dose Response HTS to Identify Activators of 5'UTR Stem-Loop Driven Prion Protein mRNA Translation in H4 Neuroglioblastoma Cells. [Related pubchem assays: 1829 (Project Summary), 1814 (Primary HTS)]; type: functional; conditions: Homo sapiens
[6] = Luminescence Cell-Based Dose Response HTS to Identify Activators of Luciferase Translation or Activity in H4 […] Cells. [Related pubchem assays: 1829 (Project Summary), 1814 (Primary HTS)]; type: functional
[7] = Luminescence Cell-Based Dose Confirmation HTS to Identify Activators of 5'UTR Stem-Loop Driven Alpha-Synuclein mRNA Translation in H4 Neuroglioblastoma Cells. [Related pubchem assays: 1829 (Project Summary), 1814 (Primary HTS)]; type: functional
INS1 = assay: INS-1E survival protection against cytokine death – cell-based, luminescence, retest, dose response (AID 449756); type: functional; conditions: Rattus norvegicus;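 also: cell death triggered by IL-1 beta plus TNF-alpha plus IFN-gamma mixture; protective hits raise ATP signal compared with cytokine alone wells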
[8] = Trypanosoma cruzi growth suppression in host cells – NIH3T3 host cells, beta-gal luminescence, confirmation (AID 2044); type: functional, cell-based;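 also: intracellular parasites grown in NIH/3T3 mouse fibroblasts as host cells; luminescent beta-galactosidase reporter signal from transgenic T. cruzi replicating inside host cells; inhibitors lower the luminescence signal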
[9] = NIH3T3 cell viability loss – ATP luminescence, mouse fibroblasts, counter-screen, dose response (AID 2010); type: functional, cell-based;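 also: cells exposed to compound for about 90 hours before reading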
Cytochrome P450 2C19 = Cytochrome P450 2C19 (Homo sapiens, UniProt P33261); assay: Cytochrome panel assay with activity outcomes. Panel member name: p450-cyp2c19 Compounds with AC50 equal or less than 10 uM are considered active; type: functional; conditions: read-out: AC50
[10] = target: T2, Zinc finger protein mex-5 (Caenorhabditis elegans, UniProt Q9XUB2); assay: potency of MEX-5 RNA-binding blockers – biochemical, C. elegans, fluorescence polarization, dose response (AID 1960)
T2 sequence (Q9XUB2 whole entry): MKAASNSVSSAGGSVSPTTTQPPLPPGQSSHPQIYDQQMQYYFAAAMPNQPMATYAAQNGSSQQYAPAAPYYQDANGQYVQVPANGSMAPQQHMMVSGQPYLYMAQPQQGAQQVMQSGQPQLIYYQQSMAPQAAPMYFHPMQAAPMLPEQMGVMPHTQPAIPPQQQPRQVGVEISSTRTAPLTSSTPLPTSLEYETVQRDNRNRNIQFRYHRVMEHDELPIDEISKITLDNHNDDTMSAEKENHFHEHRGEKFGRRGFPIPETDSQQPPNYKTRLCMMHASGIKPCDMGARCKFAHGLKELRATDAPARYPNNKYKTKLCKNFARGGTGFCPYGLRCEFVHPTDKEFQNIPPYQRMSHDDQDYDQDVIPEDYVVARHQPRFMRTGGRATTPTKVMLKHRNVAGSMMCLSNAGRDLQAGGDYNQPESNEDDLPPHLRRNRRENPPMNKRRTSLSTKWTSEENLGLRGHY

[11] = target: T3, RNA-binding protein pos-1 (Caenorhabditis elegans, UniProt G5EF15); assay: disruptors of C. elegans POS-1 RNA interaction – biochemical, fluorescence polarization, dose response (AID 1964);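 also: purified POS-1 fused to maltose binding protein made in E. coli; potency of compounds blocking POS-1 binding to fluorescent RNA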
T3 sequence (G5EF15 whole entry): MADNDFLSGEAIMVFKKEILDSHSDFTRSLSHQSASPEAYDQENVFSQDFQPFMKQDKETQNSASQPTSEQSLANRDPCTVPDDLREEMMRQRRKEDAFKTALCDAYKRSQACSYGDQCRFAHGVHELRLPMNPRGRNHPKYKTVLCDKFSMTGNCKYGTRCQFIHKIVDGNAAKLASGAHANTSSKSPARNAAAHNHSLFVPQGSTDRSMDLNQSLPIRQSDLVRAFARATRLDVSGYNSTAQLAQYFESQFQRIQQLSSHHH

[12] = HIV-1 AD8 envelope cell-cell fusion blockers – cherry-pick, dose response (AID 652062); type: functional, cell-based;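 also: luciferase signal from cell-cell fusion driven by HIV-1 clade B AD8 Env; potency is for inhibitors of fusion seen as a drop in luminescence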
Protein RecA = target: T4, Protein RecA (Mycobacterium tuberculosis, UniProt P9WHJ3); assay: Fluorescence Cell-Free Homogeneous Dose Retest to Identify Inhibitors of RecA-Intein Splicing Activity. [Related pubchem assays (depositor defined):AID2097, AID2223, AID489010, AID492950]; type: functional
T4 sequence (P9WHJ3 whole entry): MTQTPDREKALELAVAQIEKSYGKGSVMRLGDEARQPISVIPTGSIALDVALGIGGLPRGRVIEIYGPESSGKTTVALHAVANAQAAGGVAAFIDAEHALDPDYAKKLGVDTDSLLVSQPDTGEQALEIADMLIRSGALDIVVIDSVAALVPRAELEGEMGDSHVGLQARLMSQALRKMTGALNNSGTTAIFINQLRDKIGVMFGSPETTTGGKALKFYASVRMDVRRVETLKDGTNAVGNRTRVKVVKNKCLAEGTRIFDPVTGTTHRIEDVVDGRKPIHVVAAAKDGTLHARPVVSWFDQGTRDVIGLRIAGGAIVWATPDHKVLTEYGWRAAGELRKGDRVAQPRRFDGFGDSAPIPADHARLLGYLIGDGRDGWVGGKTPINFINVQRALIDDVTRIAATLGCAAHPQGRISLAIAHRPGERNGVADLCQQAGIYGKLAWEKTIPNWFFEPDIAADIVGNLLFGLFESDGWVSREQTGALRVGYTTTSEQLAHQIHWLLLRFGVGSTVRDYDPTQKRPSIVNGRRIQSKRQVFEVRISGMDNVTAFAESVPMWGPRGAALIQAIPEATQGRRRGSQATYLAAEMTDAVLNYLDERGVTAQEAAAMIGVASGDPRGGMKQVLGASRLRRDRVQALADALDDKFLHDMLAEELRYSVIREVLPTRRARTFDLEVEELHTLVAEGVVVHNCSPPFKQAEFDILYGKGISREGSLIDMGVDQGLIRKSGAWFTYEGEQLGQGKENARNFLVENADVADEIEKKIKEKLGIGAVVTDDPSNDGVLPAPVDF

[13] = target: T5, Replicative DNA helicase DnaB (Mycobacterium tuberculosis, UniProt P9WMR3); assay: DnaB intein splicing inhibitors, dose response, biochemical, cell-free fluorescence (AID 449749); type: functional
T5 sequence (P9WMR3 whole entry): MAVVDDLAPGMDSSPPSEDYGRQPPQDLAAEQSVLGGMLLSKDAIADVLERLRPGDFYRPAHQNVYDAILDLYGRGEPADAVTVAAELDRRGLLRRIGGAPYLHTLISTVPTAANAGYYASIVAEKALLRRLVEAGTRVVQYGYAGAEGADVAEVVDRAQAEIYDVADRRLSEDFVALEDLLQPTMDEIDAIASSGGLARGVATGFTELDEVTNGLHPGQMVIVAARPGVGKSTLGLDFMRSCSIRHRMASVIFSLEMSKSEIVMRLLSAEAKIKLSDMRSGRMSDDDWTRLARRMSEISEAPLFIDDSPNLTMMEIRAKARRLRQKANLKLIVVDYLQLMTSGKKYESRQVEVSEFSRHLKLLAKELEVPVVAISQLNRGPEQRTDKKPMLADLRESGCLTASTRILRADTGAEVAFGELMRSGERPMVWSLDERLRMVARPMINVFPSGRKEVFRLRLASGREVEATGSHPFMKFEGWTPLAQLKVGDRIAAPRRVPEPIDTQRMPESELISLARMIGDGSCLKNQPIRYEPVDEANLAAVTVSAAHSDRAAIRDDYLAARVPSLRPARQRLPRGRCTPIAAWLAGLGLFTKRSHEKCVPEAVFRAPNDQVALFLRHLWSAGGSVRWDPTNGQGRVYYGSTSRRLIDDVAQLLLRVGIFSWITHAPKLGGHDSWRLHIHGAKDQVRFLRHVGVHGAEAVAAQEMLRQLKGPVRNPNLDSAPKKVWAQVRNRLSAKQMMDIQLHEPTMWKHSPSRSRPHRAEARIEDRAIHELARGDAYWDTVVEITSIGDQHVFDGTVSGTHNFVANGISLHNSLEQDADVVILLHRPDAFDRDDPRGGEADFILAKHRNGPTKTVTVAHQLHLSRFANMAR

Chain of Genome polyprotein (P29990 2492-3391 limits assumed): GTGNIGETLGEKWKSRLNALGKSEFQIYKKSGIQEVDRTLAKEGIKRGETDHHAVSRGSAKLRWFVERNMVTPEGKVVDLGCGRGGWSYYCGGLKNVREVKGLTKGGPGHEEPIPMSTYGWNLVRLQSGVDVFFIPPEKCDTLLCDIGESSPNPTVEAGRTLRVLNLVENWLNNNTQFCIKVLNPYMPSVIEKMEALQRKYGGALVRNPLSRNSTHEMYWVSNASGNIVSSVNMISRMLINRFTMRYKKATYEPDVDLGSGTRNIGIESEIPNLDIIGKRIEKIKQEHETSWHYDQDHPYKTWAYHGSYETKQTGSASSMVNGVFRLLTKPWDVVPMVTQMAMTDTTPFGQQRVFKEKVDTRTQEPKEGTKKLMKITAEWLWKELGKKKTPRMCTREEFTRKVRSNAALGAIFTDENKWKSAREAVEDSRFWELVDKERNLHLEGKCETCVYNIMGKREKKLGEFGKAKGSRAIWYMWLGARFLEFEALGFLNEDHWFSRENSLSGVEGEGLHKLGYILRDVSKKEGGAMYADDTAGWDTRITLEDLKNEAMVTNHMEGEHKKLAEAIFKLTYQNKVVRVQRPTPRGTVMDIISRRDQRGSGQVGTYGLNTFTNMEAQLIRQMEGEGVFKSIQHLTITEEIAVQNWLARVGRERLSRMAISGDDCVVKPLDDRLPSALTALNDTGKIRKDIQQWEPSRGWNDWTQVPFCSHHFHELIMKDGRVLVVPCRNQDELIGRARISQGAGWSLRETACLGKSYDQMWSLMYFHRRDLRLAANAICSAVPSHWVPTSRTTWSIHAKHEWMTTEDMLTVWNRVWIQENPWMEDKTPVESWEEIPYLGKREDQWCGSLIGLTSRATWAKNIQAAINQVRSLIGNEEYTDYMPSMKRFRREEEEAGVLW
Chain of Cytochrome P450 2C19 (P33261 whole entry): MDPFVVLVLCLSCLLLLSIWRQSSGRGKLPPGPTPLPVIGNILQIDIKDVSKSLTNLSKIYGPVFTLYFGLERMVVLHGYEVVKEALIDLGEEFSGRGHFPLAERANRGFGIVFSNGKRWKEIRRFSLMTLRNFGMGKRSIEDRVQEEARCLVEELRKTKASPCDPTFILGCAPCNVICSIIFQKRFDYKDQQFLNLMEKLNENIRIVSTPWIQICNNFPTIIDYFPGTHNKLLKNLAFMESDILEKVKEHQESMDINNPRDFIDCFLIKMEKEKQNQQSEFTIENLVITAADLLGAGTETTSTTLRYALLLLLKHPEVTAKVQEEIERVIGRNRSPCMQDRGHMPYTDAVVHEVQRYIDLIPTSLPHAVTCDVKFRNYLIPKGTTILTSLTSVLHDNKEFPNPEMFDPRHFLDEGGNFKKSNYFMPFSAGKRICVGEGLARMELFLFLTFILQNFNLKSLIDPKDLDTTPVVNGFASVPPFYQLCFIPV

COC1C=COC2(C)Oc3c(C)c(O)c4c(O)c(c(CN5CCN(C)CC5)c(O)c4c3C2=O)NC(=O)C(C)=CC=CC(C)C(O)C(C)C(O)C(C)C(OC(C)=O)C1C (centres undefined)
IC50 (Genome polyprotein): 96.6 µM (active)

O=C(CCN1C(=O)C2C3C=CC(C4CC34)C2C1=O)Oc1cccc2cccnc12 (centres undefined)
EC50 [1]: 16.7 µM (active)
EC50 [2]: 18.8 µM (active)

Cc1ccc(NCc2nnc(SCC(=O)Nc3ncc(C)s3)n2Cc2ccco2)c(C)c1
EC50 [1]: 23.8 µM (active)
EC50 [2]: 23.3 µM (active)

O=C(Cc1ccc([N+](=O)[O-])cc1)NNC(=O)c1ccc2c(c1)OCO2
EC50 [3]: > 150 µM (inactive)
EC50 [4]: > 38 µM (not active)

CCOC(=O)c1sc(N2C(=O)C(O)=C(C(=O)c3ccco3)C2c2cccc(Cl)c2)nc1C (centres undefined)
EC50 (Streptokinase A): > 150 µM (not active)
EC50 [5]: 7.41 µM (active)
EC50 [3]: 30.5 µM (active)
EC50 [4]: 1.41 µM (active)
EC50 (Streptococcus): 8.62 µM (active)

CCc1ccc(Nc2ccc(C(=O)O)cc2[N+](=O)[O-])cc1
IC50 (Genome polyprotein): > 100 µM (active)

CCN1CCN(c2cc(C)c3cc(NC(=O)c4cccc(OC)c4)ccc3n2)CC1
CC50 (Vero): > 25 µM (active)
EC50 (H4): 17.9 µM (active)
EC50 [6]: 16 µM (active)
EC50 [7]: 13.5 µM (active)

O=C1NC(=O)C(=Cc2c(Cl)cccc2Cl)C(=O)N1
IC50 (Genome polyprotein): 43.4 µM (active)

CC(C)c1ccc(NC(=O)Cc2cn(C)c3ccccc23)cc1
EC50 [3]: > 150 µM (inactive)
EC50 [4]: > 38 µM (not active)

CCn1nccc1C(=O)Nc1ccc(S(=O)(=O)NC23CC4CC(CC(C4)C2)C3)cc1
EC50 [1]: 27.9 µM (active)
EC50 [2]: 24.3 µM (active)

O=C1CNC(=O)/C1=C/c1ccc(Br)cc1
IC50 (Genome polyprotein): > 100 µM (active)

Cc1ccc(CNC(=O)CSCc2cccc(F)c2)cc1
EC50 [3]: > 150 µM (inactive)
EC50 [4]: > 38 µM (not active)

O=c1c2ccccc2nc(CSc2[nH]cnc3ncnc2-3)n1-c1ccccc1
EC50 [1]: 28.9 µM (active)
EC50 [2]: 14.9 µM (active)

Nc1c(C(=O)NCc2ccc(F)cc2)c2nc3ccccc3nc2n1CCCN1CCOCC1
EC50 [1]: 18.9 µM (active)
EC50 [2]: 21.5 µM (active)

COc1ccc(CNCCC(c2ccc(OC(C)C)cc2)C(C)C)cc1OC (centres undefined)
AC50 (INS1): 12.7 µM (active)
EC50 [1]: 10.7 µM (active)
EC50 [8]: 0.416 µM (active)
EC50 [9]: 9.8 µM (active)
EC50 [2]: 13 µM (active)
AC50 (Cytochrome P450 2C19): 10 µM (inconclusive)

O=C(Nc1ccc(F)cc1)c1nc[nH]c1C(=O)Nc1ccccc1[N+](=O)[O-]
EC50 [1]: 4.18 µM (active)
EC50 [2]: 3.08 µM (active)

Cc1noc(/C=C/c2cccnc2)c1[N+](=O)[O-]
CC50 (Vero): 17.3 µM (active)
EC50 [8]: 2.34 µM (active)
EC50 [9]: 18.4 µM (active)

O=C1c2cccc3c([N+](=O)[O-])ccc(c23)C(=O)N1c1nccs1
EC50 [1]: 11.9 µM (active)
EC50 [2]: 21.6 µM (active)

Cc1n[nH]c(C)c1S(=O)(=O)N1CCCC(C(=O)Nc2ccc(Br)cc2)C1 (centres undefined)
EC50 (H4): > 120 µM (not active)
EC50 [10]: > 300 µM (not active)
EC50 [6]: > 120 µM (not active)
EC50 [7]: > 120 µM (not active)
EC50 [11]: > 300 µM (not active)

COc1cccc(/C=C2\SC(=S)N(C(C(=O)O)c3ccccc3)C2=O)c1OC (centres undefined)
IC50 (Genome polyprotein): 49.7 µM (active)

O=C(C[C@H]1C[C@H]2c3cc(NC(=O)C4CCC4)ccc3O[C@H]2[C@H](CO)O1)NCc1ccc2c(c1)OCO2
AC50 [12]: 4.08 µM (active)

O=C(Nc1cccn(Cc2c(Cl)cccc2Cl)c1=O)c1ccc(Cl)cc1
AC50 [12]: 8.74 µM (active)

CN1CCN(C(=O)CCN2C(=O)/C(=C\c3ccc(Cl)cc3)SC2=S)CC1
CC50 (Vero): 15.8 µM (active)

Cc1ccc(N2C(=O)C(Cl)=C(N3CCOCC3)C2=O)cc1Cl
EC50 (Protein RecA): 2.61 µM (active)
IC50 (Genome polyprotein): 34.7 µM (active)
AC50 [13]: 6.76 µM (active)
